Patent US4593019A, “N^6 -tricyclic adenosines” (Warner-Lambert Company, priority 1984, dated 1986)

Columns and labels:
A2 receptor = biological target: T1, A2 receptor (Rattus norvegicus, UniProt P30543); experiment: Adenosine Receptor Binding - A2 Receptor Affinity (RBA2), [3H]NECA displacement; conditions: 4 nM [3H]NECA, 50 nM N6-cyclopentyladenosine, rat striatal membranes, 25° C., 60 min; read-out: RBA-2 IC50 (adenosine A2 receptor affinity)
T1 construct: 5 mg original tissue weight of rat weight of rat striatal membranes; tissue Pel-Freez (Rogers, Ark.); host or cells: rat striatum (membranes)
T1 sequence (P30543 whole entry): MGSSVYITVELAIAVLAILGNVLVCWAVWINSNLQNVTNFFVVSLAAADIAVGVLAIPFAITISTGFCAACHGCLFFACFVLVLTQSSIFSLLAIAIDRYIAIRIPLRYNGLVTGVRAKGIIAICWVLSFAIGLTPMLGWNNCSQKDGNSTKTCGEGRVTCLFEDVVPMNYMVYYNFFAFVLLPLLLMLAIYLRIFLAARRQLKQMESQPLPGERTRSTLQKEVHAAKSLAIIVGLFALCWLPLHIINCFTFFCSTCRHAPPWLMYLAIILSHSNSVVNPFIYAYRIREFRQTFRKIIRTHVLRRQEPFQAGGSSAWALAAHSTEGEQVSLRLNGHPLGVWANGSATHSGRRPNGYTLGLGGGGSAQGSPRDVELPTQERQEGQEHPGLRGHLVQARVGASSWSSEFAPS
Procedure: Adenosine Receptor Binding--A2 Receptor Affinity (RBA2)
Brains from 200-500 g mixed sex Sprague-Dawley rats were purchased from Pel-Freez (Rogers, Ark.). […] Brains were thawed and then kept on ice while the striata were dissected out. […] The suspension was centrifuged at 50,000 xg for ten minutes, the supernatant discarded, the pellet resuspended in 10 vol ice-cold Tris as above, recentrifuged, resuspended at 1 g/5 ml, and stored in plastic vials at -70° C. […] When needed, tissue was thawed at room temperature, disrupted in a Polytron, and kept on ice until used. […]
Nonspecific binding was defined as binding in the presence of 100 μM N^6 -cyclopentyladenosine, and specific binding was defined as total binding minus nonspecific binding. The IC50 was calculated by weighted nonlinear least squares curve-fitting to the mass-action equation. […]
Weighting factors were calculated under the assumption that the standard deviation was proportional to the predicted value of Y. Nonspecific binding was treated as a very large (infinite) concentration of drug in the computer analysis.

mice = experiment: Mouse Activity and Screen Test Procedure (MAST): screen test failure; type: in vivo, mouse (male Swiss-Webster); conditions: one hour postinjection
Excerpt: The compounds of the invention are new chemical substances which are useful as pharmaceutical agents for the treatment of psychoses. The antipsychotic activity of representative compounds of the invention was established by the Mouse Activity and Screen Test Procedure (MAST) described below.
(§1) Nine unfasted Swiss-Webster male mice weighing 20-30 g are equally divided into three groups for each drug dose to be tested. That is, data for each dose level was generated by three separate groups of three mice each.
(§2) A minimum of three dose levels (10, 30, and 100 mg/kg) are tested for each drug. Treatments are administered intraperitoneally one hour prior to testing. All dosages are calculated as parent compound and given in volumes of 10 ml/kg. Compounds are dissolved or suspended in 0.2% Methocel. Control animals are injected with Methocel.
A two part testing procedure is started one hour postinjection. First, the screen test (ST) is performed (see Pharmac. Biochem. Behav. 6, 351-353, 1977). Briefly this test consists of placing mice on individual wire screens which are then rotated 180 degrees at the start of a 60 second observation period. The number of mice falling off the inverted screen is recorded.
The data obtained from the screen test are expressed as percent of mice falling off the screen. Data derived from locomotor activity of drug treated mice are compared to the activity of vehicle treated animals and are expressed as percent inhibition of spontaneous locomotion. All percentages reported for inhibition of locomotion (LI) are based upon data accumulated for one hour. Both phases of testing are graded: A=60-100%; C=31-59%; and N=0-30%. An overall dose rating is obtained by the following criteria: […]

A1 receptor = biological target: T2, A1 receptor (Rattus norvegicus, UniProt P25099); experiment: Adenosine Receptor Binding - A1 Receptor Affinity (RBA1), [3H]-CHA displacement; conditions: 1.0 nM [3H]-CHA, rat brain membranes, pH 7.7, 25° C., 1 h; read-out: RBA-1 IC50 (adenosine A1 receptor affinity)
T2 construct: Whole brain minus cerebellum and brainstem from male Long Evans rats; from tissue; host or cells: rat whole brain minus cerebellum and brainstem (membranes)
T2 sequence (P25099 1-326): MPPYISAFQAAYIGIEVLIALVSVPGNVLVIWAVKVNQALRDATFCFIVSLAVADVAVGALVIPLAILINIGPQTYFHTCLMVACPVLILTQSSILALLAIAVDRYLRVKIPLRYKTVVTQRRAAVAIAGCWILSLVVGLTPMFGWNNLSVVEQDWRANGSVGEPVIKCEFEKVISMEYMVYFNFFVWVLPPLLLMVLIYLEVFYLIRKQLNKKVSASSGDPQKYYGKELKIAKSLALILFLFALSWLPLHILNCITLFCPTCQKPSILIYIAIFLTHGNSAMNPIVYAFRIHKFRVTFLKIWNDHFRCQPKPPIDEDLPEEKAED
Procedure: The supernatant was discarded, and the pellet was resuspended and centrifuged as before. […] Incubation volume was 2 ml. […] The radio-labeled ligand retained on the filter was measured by liquid scintillation spectrophotometry after shaking the filters for one hour or longer on a mechanical shaker in 10 ml of Beckman Ready-Solv HP scintillation cocktail. […] The maximal number of binding sites (Bmax) was calculated from the Scatchard plot.

[1] = Mouse Activity and Screen Test Procedure (MAST): inhibition of spontaneous locomotion; type: in vivo, mouse (male Swiss-Webster); conditions: one hour prior to testing, accumulated over one hour
Procedure: as §1, §2
A two part testing procedure is started one hour postinjection. […] Briefly this test consists of placing mice on individual wire screens which are then rotated 180 degrees at the start of a 60 second observation period. The number of mice falling off the inverted screen is recorded.
The actophotometer consists of a cylindrical chamber whose center is occupied by another cylinder which contains the illumination for six photocells located on the perimeter of the chamber. Six light-beam interruptions equal one count. Locomotor activity is recorded by computer at ten minute intervals for 60 minutes.
The data obtained from the screen test are expressed as percent of mice falling off the screen. Data derived from locomotor activity of drug treated mice are compared to the activity of vehicle treated animals and are expressed as percent inhibition of spontaneous locomotion. All percentages reported for inhibition of locomotion (LI) are based upon data accumulated for one hour. […] An overall dose rating is obtained by the following criteria:
LAD refers to the lowest dose at which an A rating is achieved. […] The compounds are identified in the examples.

[2] = Antihypertensive evaluation (AHP3): direct monitoring of aortic blood pressure and heart rate in conscious rats; type: in vivo; conditions: 10 mg/kg, conscious rat
Procedure: This test procedure is described in the following paragraphs.
The continuous monitoring of pulsatile blood pressure (BP) from unrestrained conscious rats surgically equipped with polyethylene cannulas was accomplished by means of a computer assisted data capture scheme (CADCS). The basic elements of the methodology are the cannulation procedure and the CADCS.
Cannulation Procedure: Rats were anesthetized with Telazol (1:1 tiletamine HCl and zolazepam HCl); 20-40 mg/kg IM and the descending aorta exposed via a midline incision. Cannulas fabricated from polyethylene tubing were inserted into the aorta via an undersized puncture hole below the renal arteries. The puncture hole was made by a 23 G disposable needle with a section of the aorta clamped off above and below the puncture site. The cannulas, consisting of a PE100 (0.86 mm ID) body and a PE50 (0.58 mm ID) tip, were attached to a trocar, inserted through the psoas muscle, and passed subcutaneously along the midline of the back and externalized between the ears. The cannulas were anchored to the psoas muscle and between the scalulae (3-0 green braided suture). The midline incision was closed in two steps (muscle first, skin second) using continuous over-and over sutures (4-0 chronic). Each rat was then given penicillin 30,000 units subcutaneously (Penicillin G Procaine Sterile Suspension).
The rats were fitted with a harness-spring-swivel assembly designed to protect the cannula and to provide the rat relative freedom of movement. The harnesses were fabricated from nylon hook and loop tape cemented to a metal plate to which spring wires (18-8 stainless steel), were attached to brass swivels. […] While on test, each rat received a continuous slow infusion of heparinized saline solution (approximately […] or 40 units of heparin per 24 hour period) to prevent clot formation. Additional "flushes" of the cannula with heparinized saline were carried out when the aortic pulse pressure (systolic minus diastolic) was less than 25 mm Hg.
CADCS: The pulsatile blood pressure and heart rate of each of 32 rats was monitored every minute by means of two in-laboratory microcomputers communicating directly with a data concentrator computer. The data were first stored on the data concentrator disk and then transferred to a magnetic tape for analysis and report generation by the main research computer. The overall scheme involved modulating the primary signal from the pressure transducer, generating the primary data set of the one-minute values for systolic, diastolic, and mean blood pressures and heart rate by the in-lab microcomputer and the storage, analysis, and report generation by the main reserach computer.
The transducers were connected to analog signal conditioning modules. The modules provided a regulated excitation voltage for the transducers, amplification as required to interface the microprocessors and an active low pass filter to compensate for the pressure wave form distortion produced by the flexible, fluid filled, narrow cannula.
The microcomputers (one for each of two groups of 16 rats) were connected to the input components through the module interface units, an analog-to-digital converter for the pressure wave form signal and the digital inputs for the dose and event marker switches. The microcomputer controlled the sequential acquisition of data from the modular interface units through an internal synchronous time-of-day clock/time base generator. Utilizing the time base generator as a reference, the blood pressure values and the marker switch status for each of the 32 stations were sampled every ten msec. The microcomputer processed each blood pressure sample as it was received to produce "running average" values for heart rate, and mean, systolic and diastolic blood pressures.

Row | IC50 (A2 receptor) [µM] | Screen Test Failure (percent of mice falling off the screen) (mice; 10 mg/kg i.p.) [%] | Screen Test Failure (percent of mice falling off the screen) (mice; 30 mg/kg i.p.) [%] | Screen Test Failure (percent of mice falling off the screen) (mice; 100 mg/kg i.p.) [%] | IC50 (A1 receptor) [nM] | SMILES | Inhibition of Mouse Locomotion Activity ([1]; 10 mg/kg i.p.) [%] | Inhibition of Mouse Locomotion Activity ([1]; 30 mg/kg i.p.) [%] | Inhibition of Mouse Locomotion Activity ([1]; 100 mg/kg i.p.) [%] | HR ↑ (increase in heart rate) ([2]; 1 hour) [%] | MAP ↓ (decrease in mean arterial blood pressure) ([2]; 1 hour) [%] | HR ↑ (increase in heart rate) ([2]; 3 hours) [%] | MAP ↓ (decrease in mean arterial blood pressure) ([2]; 3 hours) [%] | HR ↑ (increase in heart rate) ([2]; 5 hours) [%] | MAP ↓ (decrease in mean arterial blood pressure) ([2]; 5 hours) [%] | HR ↑ (increase in heart rate) ([2]; 7 hours) [%] | MAP ↓ (decrease in mean arterial blood pressure) ([2]; 7 hours) [%] | HR ↑ (increase in heart rate) ([2]; 9 hours) [%] | MAP ↓ (decrease in mean arterial blood pressure) ([2]; 9 hours) [%] | Screen Test Failure (percent of mice falling off the screen) (mice; 1 mg/kg i.p.) [%] | Screen Test Failure (percent of mice falling off the screen) (mice; 3 mg/kg i.p.) [%] | further results
1 | 51 | 0 | 0 | 0 | 8600 | OC[C@H]1O[C@@H](n2cnc3c(NC4c5ccccc5-c5ccccc54)ncnc32)[C@H](O)[C@@H]1O [Example 1] | 41 | 60 | 68 |  |  |  |  |  |  |  |  |  |  |  |  | 
2 |  |  |  |  | 435 | OC[C@H]1O[C@@H](n2cnc3c(NCCC4c5ccccc5-c5ccccc54)ncnc32)[C@H](O)[C@@H]1O [Example 3, N^6 -Fluorenylethyl adenosine] |  |  |  |  |  |  |  |  |  |  |  |  |  |  |  | 
3 | 0.065 | 0 | 11 | 44 | 85 | OC[C@H]1O[C@@H](n2cnc3c(NCC4c5ccccc5Oc5ccccc54)ncnc32)[C@H](O)[C@@H]1O [Example 4, N^6-[Xanthene-9-methylamino]adenosine] | 72 | 91 | 91 | 16 | 11 | 19 | 4 | 25 | 8 | 15 | 12 | 18 | 8 | 0 | 0 | Inhibition of Mouse Locomotion Activity ([1]; 1 mg/kg i.p.): -5%; Inhibition of Mouse Locomotion Activity ([1]; 3 mg/kg i.p.): 17%

Row | SMILES | IC50 (A2 receptor) [µM] | Screen Test Failure (percent of mice falling off the screen) (mice; 10 mg/kg i.p.) [%] | Screen Test Failure (percent of mice falling off the screen) (mice; 30 mg/kg i.p.) [%] | Screen Test Failure (percent of mice falling off the screen) (mice; 100 mg/kg i.p.) [%] | IC50 (A1 receptor) [nM] | Inhibition of Mouse Locomotion Activity ([1]; 10 mg/kg i.p.) [%] | Inhibition of Mouse Locomotion Activity ([1]; 30 mg/kg i.p.) [%] | Inhibition of Mouse Locomotion Activity ([1]; 100 mg/kg i.p.) [%] | HR ↑ (increase in heart rate) ([2]; 1 hour) [%] | MAP ↓ (decrease in mean arterial blood pressure) ([2]; 1 hour) [%] | HR ↑ (increase in heart rate) ([2]; 3 hours) [%] | MAP ↓ (decrease in mean arterial blood pressure) ([2]; 3 hours) [%] | HR ↑ (increase in heart rate) ([2]; 5 hours) [%] | MAP ↓ (decrease in mean arterial blood pressure) ([2]; 5 hours) [%] | HR ↑ (increase in heart rate) ([2]; 7 hours) [%] | MAP ↓ (decrease in mean arterial blood pressure) ([2]; 7 hours) [%] | HR ↑ (increase in heart rate) ([2]; 9 hours) [%] | MAP ↓ (decrease in mean arterial blood pressure) ([2]; 9 hours) [%] | Screen Test Failure (percent of mice falling off the screen) (mice; 1 mg/kg i.p.) [%] | Screen Test Failure (percent of mice falling off the screen) (mice; 3 mg/kg i.p.) [%] | further results
4 | OC[C@H]1O[C@@H](n2cnc3c(NCC4c5ccccc5-c5ccccc54)ncnc32)[C@H](O)[C@@H]1O [Example 2] |  | 44 | 55 | 55 |  | 97 | 97 | 91 | 24 | 32 | 27 | 32 | 20 | 34 | 13 | 28 | 13 | 30 | 11 | 33 | Inhibition of Mouse Locomotion Activity ([1]; 1 mg/kg i.p.): 56%; Inhibition of Mouse Locomotion Activity ([1]; 3 mg/kg i.p.): 94%
